Source: patent publication US6211155A, “Peptide conjugates derived from thymic hormones, their use as a medicament and compositions containing them” (Institut European de Biologie Cellulaire, priority 1995, dated 2001)
Where no end group is shown, it is not given here.

Assays:
[1] = tested on: Thy 1.2+ thymocytes of the epidermis; test: Thy 1.2+ epidermal cell density after topical application to mouse ear (immunofluorescence); assay type: in vivo, C57-BL/6 mice; settings: for Number of Thy 1.2+ cells per mm^2 of epidermis, batch 1 / Number of Thy 1.2+ cells per mm^2 of epidermis, batch 2 / Number of Thy 1.2+ cells per mm^2 of epidermis, batch 3 / Number of Thy 1.2+ cells per mm^2 of epidermis, batch 4 / Number of Thy 1.2+ cells per mm^2 of epidermis, Mean: C 57 BL/6 mice; for Number of Thy 1.2+ cells per mm^2 of epidermis, Mean: 4 batches; for Thy 1.2+ cells % T: relative to PG controls
Experimental: (§1) I--Experimental Samples--Code: ETF
(§2) In solution in propylene glycol at a concentration of 10^-5 M/ml
(§3) 5 to 7-week-old male C 57-BL/6 mice, which are divided into groups of 4 per cage, and which have free access to water and food and which are subjected to a photoperiod of 12 h of light per 24 hours, are given a topical application of the peptide in propylene glycol (50 μl vol) on the dorsal surface of the ear daily for 5 consecutive days.
(§4) The animals are sacrificed on day 6. The ears are removed, with the dorsal and ventral surfaces being separated.
(§5) The tissues of the dorsal surface are immersed in Na EDTA (0.020 M) at 37° C. for 2 h.
(§6) After incubation, the epidermis is removed in the form of an intact sheet, fixed with acetone and rehydrated in PBS (phosphate buffer).
(§7) The Thy 1-2+ and Ia+ EDC (epidermal dendritic cells) are identified by indirect immunofluorescence double labeling.
(§8) In the case of each epidermal sheet, the number of cells per mm^2 is determined using the peripheral regions of the same surface.
The Thy 1.2+ EDC were identified by indirect immunofluorescence double labeling. The epidermal sheets were fixed with acetone and then rehydrated in PBS.
The tissues were labeled simultaneously, at 4° C. for 16 h, with mouse anti-Thy 1.2+ antibody which was diluted 1:100. The tissue samples were washed three times in PBS for 60 min and then incubated, at 37° C. for 60 min, either with goat antimouse antibody which was coupled to rhodamine and diluted 1:20, or with goat antirabbit antibody which was coupled to fluorescein (fluorescine and diluted 1:20 in PBS. The tissues were then washed in PBS before being mounted as previously described.
(§9) In the case of each epidermal sheet, the number of Ia+ Langerhans cells or Thy 1.2+ EDCs per square millimeter was determined by means of immunofluorescence, using a confocal Zeiss microscope which was equipped for this purpose, in four peripheral areas of the same surface. At least four animals were studied in each of the groups. The density of Ia+ Langerhans cells and Thy 1.2+ EDCs is shown for each measurement.

[2] = tested on: Ia+ Langerhans cells; test: Ia+ Langerhans cell density after topical application to mouse ear; assay type: in vivo, C57-BL/6 mice; settings: for Number of Ia+ cells per mm^2 of epidermis, batch 1 / Number of Ia+ cells per mm^2 of epidermis, batch 2 / Number of Ia+ cells per mm^2 of epidermis, batch 3 / Number of Ia+ cells per mm^2 of epidermis, batch 4 / Number of Ia+ cells per mm^2 of epidermis, Mean: C 57 BL/6 mice; for Number of Ia+ cells per mm^2 of epidermis, Mean: 4 batches; for Ia+ cells %: relative to PG controls
Experimental: as §1, §2, §3, §4, §5, §6, §7, §8
The EDC (epidermal dendritic cells) carrying the Ia+ marker were identified using an anti-Ia+ monoclonal antibody.
The epidermal sheets are fixed with acetone and then incubated, at 37° C. for 1 h, in the presence of the anti-Ia+ monoclonal antibody, which has been labeled by the indirect immunoperoxidase method (Kit).
After having been incubated at 37° C. for 10 minutes with a solution of aminoethylcarbazole, the preparation is washed with PBS.
as §9

| Substance | Number of Thy 1.2+ cells per mm^2 of epidermis, batch 1 ([1]; dose 0.10 Nanog.) [cells per mm^2] | Number of Thy 1.2+ cells per mm^2 of epidermis, batch 2 ([1]; dose 0.10 Nanog.) [cells per mm^2] | Number of Thy 1.2+ cells per mm^2 of epidermis, batch 3 ([1]; dose 0.10 Nanog.) [cells per mm^2] | Number of Thy 1.2+ cells per mm^2 of epidermis, batch 4 ([1]; dose 0.10 Nanog.) [cells per mm^2] | Number of Thy 1.2+ cells per mm^2 of epidermis, Mean ([1]; dose 0.10 Nanog.) [cells per mm^2] | Thy 1.2+ cells % T ([1]; dose 0.10 Nanog.) [%] | Number of Thy 1.2+ cells per mm^2 of epidermis, batch 1 ([1]; dose 0.50 Nanog.) [cells per mm^2] | Number of Thy 1.2+ cells per mm^2 of epidermis, batch 2 ([1]; dose 0.50 Nanog.) [cells per mm^2] | Number of Thy 1.2+ cells per mm^2 of epidermis, batch 3 ([1]; dose 0.50 Nanog.) [cells per mm^2] | Number of Thy 1.2+ cells per mm^2 of epidermis, batch 4 ([1]; dose 0.50 Nanog.) [cells per mm^2] | Number of Thy 1.2+ cells per mm^2 of epidermis, Mean ([1]; dose 0.50 Nanog.) [cells per mm^2] | Thy 1.2+ cells % T ([1]; dose 0.50 Nanog.) [%] | Number of Thy 1.2+ cells per mm^2 of epidermis, batch 1 ([1]; dose 1.00 Nanog.) [cells per mm^2] | Number of Thy 1.2+ cells per mm^2 of epidermis, batch 2 ([1]; dose 1.00 Nanog.) [cells per mm^2] | Number of Thy 1.2+ cells per mm^2 of epidermis, batch 3 ([1]; dose 1.00 Nanog.) [cells per mm^2] | Number of Thy 1.2+ cells per mm^2 of epidermis, batch 4 ([1]; dose 1.00 Nanog.) [cells per mm^2] | Number of Thy 1.2+ cells per mm^2 of epidermis, Mean ([1]; dose 1.00 Nanog.) [cells per mm^2] | Thy 1.2+ cells % T ([1]; dose 1.00 Nanog.) [%] | Number of Ia+ cells per mm^2 of epidermis, batch 1 ([2]; dose 0.10 Nanog.) [cells per mm^2] | Number of Ia+ cells per mm^2 of epidermis, batch 2 ([2]; dose 0.10 Nanog.) [cells per mm^2] | also measured |
| --- | --- | --- | --- | --- | --- | --- | --- | --- | --- | --- | --- | --- | --- | --- | --- | --- | --- | --- | --- | --- | --- |
| Adipoyl-Ala-Lys-Ser-Gln-Gly-Gly-Ser-Asn-NH2 (AKSQGGSN-NH2; not fully specified (N-terminus)) [ETF-III, A of the tested sample not restated] | 168 | 165 | 180 | 176 | 172.25 | 95 | 190 | 190 | 205 | 200 | 196.25 | 122 | 200 | 220 | 216 | 210 | 211.50 | 140 | 376 | 382 | Number of Ia+ cells per mm^2 of epidermis, batch 3 ([2]; dose 0.10 Nanog.): 387 cells per mm^2; Number of Ia+ cells per mm^2 of epidermis, batch 4 ([2]; dose 0.10 Nanog.): 399 cells per mm^2; Number of Ia+ cells per mm^2 of epidermis, Mean ([2]; dose 0.10 Nanog.): 386.00 cells per mm^2; Ia+ cells % ([2]; dose 0.10 Nanog.): 277%; Number of Ia+ cells per mm^2 of epidermis, batch 1 ([2]; dose 0.50 Nanog.): 380 cells per mm^2; Number of Ia+ cells per mm^2 of epidermis, batch 2 ([2]; dose 0.50 Nanog.): 388 cells per mm^2; Number of Ia+ cells per mm^2 of epidermis, batch 3 ([2]; dose 0.50 Nanog.): 299 cells per mm^2; Number of Ia+ cells per mm^2 of epidermis, batch 4 ([2]; dose 0.50 Nanog.): 388 cells per mm^2; Number of Ia+ cells per mm^2 of epidermis, Mean ([2]; dose 0.50 Nanog.): 363.75 cells per mm^2; Ia+ cells % ([2]; dose 0.50 Nanog.): 255%; Number of Ia+ cells per mm^2 of epidermis, batch 1 ([2]; dose 1.00 Nanog.): 305 cells per mm^2; Number of Ia+ cells per mm^2 of epidermis, batch 2 ([2]; dose 1.00 Nanog.): 400 cells per mm^2; Number of Ia+ cells per mm^2 of epidermis, batch 3 ([2]; dose 1.00 Nanog.): 398 cells per mm^2; Number of Ia+ cells per mm^2 of epidermis, batch 4 ([2]; dose 1.00 Nanog.): 410 cells per mm^2; Number of Ia+ cells per mm^2 of epidermis, Mean ([2]; dose 1.00 Nanog.): 378.25 cells per mm^2; Ia+ cells % ([2]; dose 1.00 Nanog.): 269% |
| A-Arg-Lys-Asp-Val-NH2 (RKDV; not fully specified (N-terminus, C-terminus)) [ETF-XIX, A not specified for the tested sample] | 216 | 210 | 219 | 212 | 214.25 | 143 | 220 | 215 | 228 | 216 | 219.75 | 149 | 227 | 238 | 230 | 225 | 230.00 | 161 | 360 | 390 | Number of Ia+ cells per mm^2 of epidermis, batch 3 ([2]; dose 0.10 Nanog.): 378 cells per mm^2; Number of Ia+ cells per mm^2 of epidermis, batch 4 ([2]; dose 0.10 Nanog.): 320 cells per mm^2; Number of Ia+ cells per mm^2 of epidermis, Mean ([2]; dose 0.10 Nanog.): 362.00 cells per mm^2; Ia+ cells % ([2]; dose 0.10 Nanog.): 253%; Number of Ia+ cells per mm^2 of epidermis, batch 1 ([2]; dose 0.50 Nanog.): 388 cells per mm^2; Number of Ia+ cells per mm^2 of epidermis, batch 2 ([2]; dose 0.50 Nanog.): 398 cells per mm^2; Number of Ia+ cells per mm^2 of epidermis, batch 3 ([2]; dose 0.50 Nanog.): 386 cells per mm^2; Number of Ia+ cells per mm^2 of epidermis, batch 4 ([2]; dose 0.50 Nanog.): 400 cells per mm^2; Number of Ia+ cells per mm^2 of epidermis, Mean ([2]; dose 0.50 Nanog.): 393.00 cells per mm^2; Ia+ cells % ([2]; dose 0.50 Nanog.): 283%; Number of Ia+ cells per mm^2 of epidermis, batch 1 ([2]; dose 1.00 Nanog.): 400 cells per mm^2; Number of Ia+ cells per mm^2 of epidermis, batch 2 ([2]; dose 1.00 Nanog.): 410 cells per mm^2; Number of Ia+ cells per mm^2 of epidermis, batch 3 ([2]; dose 1.00 Nanog.): 438 cells per mm^2; Number of Ia+ cells per mm^2 of epidermis, batch 4 ([2]; dose 1.00 Nanog.): 415 cells per mm^2; Number of Ia+ cells per mm^2 of epidermis, Mean ([2]; dose 1.00 Nanog.): 415.75 cells per mm^2; Ia+ cells % ([2]; dose 1.00 Nanog.): 306% |
| A-Arg-Lys-Asp-Val-Tyr-NH2 (RKDVY; not fully specified (N-terminus, C-terminus)) [ETF-XV, A not specified for the tested sample; b149 names acetic acid-Arg-Lys-Asp-Val-Tyr-NH2] | 160 | 158 | 160 | 170 | 162.00 | 84 | 176 | 168 | 170 | 186 | 175.00 | 98 | 198 | 180 | 188 | 199 | 191.25 | 117 | 315 | 326 | Number of Ia+ cells per mm^2 of epidermis, batch 3 ([2]; dose 0.10 Nanog.): 320 cells per mm^2; Number of Ia+ cells per mm^2 of epidermis, batch 4 ([2]; dose 0.10 Nanog.): 330 cells per mm^2; Number of Ia+ cells per mm^2 of epidermis, Mean ([2]; dose 0.10 Nanog.): 322.75 cells per mm^2; Ia+ cells % ([2]; dose 0.10 Nanog.): 215%; Number of Ia+ cells per mm^2 of epidermis, batch 1 ([2]; dose 0.50 Nanog.): 305 cells per mm^2; Number of Ia+ cells per mm^2 of epidermis, batch 2 ([2]; dose 0.50 Nanog.): 345 cells per mm^2; Number of Ia+ cells per mm^2 of epidermis, batch 3 ([2]; dose 0.50 Nanog.): 330 cells per mm^2; Number of Ia+ cells per mm^2 of epidermis, batch 4 ([2]; dose 0.50 Nanog.): 345 cells per mm^2; Number of Ia+ cells per mm^2 of epidermis, Mean ([2]; dose 0.50 Nanog.): 331.25 cells per mm^2; Ia+ cells % ([2]; dose 0.50 Nanog.): 223%; Number of Ia+ cells per mm^2 of epidermis, batch 1 ([2]; dose 1.00 Nanog.): 348 cells per mm^2; Number of Ia+ cells per mm^2 of epidermis, batch 2 ([2]; dose 1.00 Nanog.): 360 cells per mm^2; Number of Ia+ cells per mm^2 of epidermis, batch 3 ([2]; dose 1.00 Nanog.): 348 cells per mm^2; Number of Ia+ cells per mm^2 of epidermis, batch 4 ([2]; dose 1.00 Nanog.): 350 cells per mm^2; Number of Ia+ cells per mm^2 of epidermis, Mean ([2]; dose 1.00 Nanog.): 351.50 cells per mm^2; Ia+ cells % ([2]; dose 1.00 Nanog.): 243% |
